Experimental data reported in PubChem BioAssay (NCI).
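Here, GI50 denotes the concentration required for 50% inhibition of growth. TGI denotes the concentration required for complete inhibition of growth.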

What was measured:
Experiment in all cases: NCI tumour cell line growth inhibition, 384-well format
[1] = tested on: SNB-75 CNS
[2] = tested on: RXF 393 renal
[3] = tested on: SF-268 CNS
[4] = tested on: HS 578T breast
[5] = tested on: A498 renal
[6] = tested on: PC-3 prostate
[7] = tested on: ACHN renal
[8] = tested on: SF-295 CNS
[9] = tested on: A549 NSCLC
[10] = tested on: NCI-H23 lung
[11] = tested on: M14 melanoma
[12] = tested on: U251 glioblastoma
[13] = tested on: SNB-19 CNS

`O=C(/C=C\n1cnc(-c2cc(C(F)(F)F)cc(C(F)(F)F)c2)n1)NNc1cnccn1` gave a GI50 [1] of 77 nM, a TGI [1] of 422 nM and a GI50 [2] of 21.6 nM. It also gave a TGI [2] of 82.7 nM, a GI50 [3] of 40.7 nM and a TGI [3] of 310 nM. For the same compound, the GI50 [4] was 41.1 nM, the TGI [4] was 281 nM and the GI50 [5] was 72.8 nM. The TGI [5] was 1540 nM, the GI50 [6] was 57.6 nM and the TGI [6] was 999 nM. It also gave a GI50 [7] of 250 nM, a TGI [7] of 5390 nM and a GI50 [8] of 86 nM. It also gave a TGI [8] of 1050 nM, a GI50 [9] of 109 nM and a TGI [9] of 5620 nM. It also gave a GI50 [10] of 54.8 nM, a TGI [10] of 889 nM and a GI50 [11] of 353 nM. For the same compound, the TGI [11] was 1670 nM, the GI50 [12] was 88.9 nM and the TGI [12] was 816 nM. It also gave a GI50 [13] of 451 nM and a TGI [13] of 8540 nM.
